US7192746B2, “α-Isomaltosyltransferase, process for producing the same and use thereof” (Kabushiki Kaisha Hayashibara Seibutsu Kagaku Kenkyujo, priority 2000, dated 2007)

Assays:
Assay type in all cases: biochemical
[1] = tested on: α-isomaltosyl-transferring enzyme from Arthrobacter globiformis A19; experiment: Action on saccharides (substrates, TLC); parameters: key: −: there was found no substrate change before and after the enzymatic reaction; +: there were found both the reduction of substrate and the formation of cyclotetrasaccharide after the enzymatic reaction; details: partially purified enzyme, 2 units/g substrate, 2% (w/v) substrate, 30° C., pH 6.0, 24 hours
Text: (§1) To examine the saccharides in the supernatant, they were separated from the supernatant by silica gel thin-layer chromatography (abbreviated as “TLC” hereinafter) using, as a developer, a mixture solution of n-butanol, pyridine, and water (=6:4:1), and, as a thin-layer plate, “[…] 60”, an aluminum plate (20×20 cm) for TLC commercialized by […]. The coloration of both the separated total sugars by the sulfuric acid-methanol method and the reducing saccharides by the diphenylamine-aniline method detected a non-reducing saccharide at a position with an Rf value of about 0.31, which was positive on the former detection method but negative on the latter detection method.
(§2) It was tested whether saccharides can be used as substrates for the α-isomaltosyl-transferring enzyme. For the purpose, a solution of maltose, maltotriose, maltotetraose, maltopentaose, maltohexaose, maltoheptaose, isomaltose, isomaltotriose, panose, isomaltosylmaltose, isopanose, α,α-trehalose, kojibiose, nigerose, α,β-trehalose, cellobiose, gentibiose, maltitol, maltotriitol, lactose, sucrose, α-cyclodextrin, β-cyclodextrin, γ-cyclodextrin, soluble starch, pullulan, or dextran was prepared. To each of the above solutions was added two units/g substrate of a purified specimen of either α-isomaltosyl-transferring enzyme from Bacillus globisporus C9 obtained by the method in Experiment 4, Bacillus globisporus C11 obtained by the method in Experiment 7, Bacillus globisporus N75 obtained by the method in Experiment 11, or Arthrobacter ramosus S1 obtained by the method in Experiment 15, or a partially purified α-isomaltosyl-transferring enzyme from Arthrobacter globiformis A19 obtained by the method in Experiment 15. The resulting each solution was adjusted to give a substrate concentration of 2% (w/v) and incubated at 30° C. and pH 6.0 for 24 hours. The enzyme solutions before and after the enzymatic reactions were respectively analyzed on TLC as disclosed in Experiment 1 to confirm whether the enzymes acted on these substrates.

[2] = tested on: α-isomaltosyl-transferring enzyme from Arthrobacter ramosus S1; experiment: Action on saccharides (substrates, TLC); parameters: key: −: there was found no substrate change before and after the enzymatic reaction; +: there were found both the reduction of substrate and the formation of cyclotetrasaccharide after the enzymatic reaction; details: 2 units/g substrate, 2% (w/v) substrate, 30° C., pH 6.0, 24 hours
Text: as §1, §2

[3] = tested on: α-isomaltosyl-transferring enzyme from Bacillus globisporus C11; experiment: Action on saccharides (substrates, TLC); parameters: key: −: there was found no substrate change before and after the enzymatic reaction; +: there were found both the reduction of substrate and the formation of cyclotetrasaccharide after the enzymatic reaction; details: 2 units/g substrate, 2% (w/v) substrate, 30° C., pH 6.0, 24 hours
Text: as §1, §2

[4] = tested on: α-isomaltosyl-transferring enzyme from Bacillus globisporus C9; experiment: Action on saccharides (substrates, TLC); parameters: key: −: there was found no substrate change before and after the enzymatic reaction; +: there were found both the reduction of substrate and the formation of cyclotetrasaccharide after the enzymatic reaction; details: 2 units/g substrate, 2% (w/v) substrate, 30° C., pH 6.0, 24 hours
Text: as §1, §2

[5] = tested on: α-isomaltosyl-transferring enzyme from Bacillus globisporus N75; experiment: Action on saccharides (substrates, TLC); parameters: key: −: there was found no substrate change before and after the enzymatic reaction; +: there were found both the reduction of substrate and the formation of cyclotetrasaccharide after the enzymatic reaction; details: 2 units/g substrate, 2% (w/v) substrate, 30° C., pH 6.0, 24 hours
Text: as §1, §2

[6] = tested on: α-isomaltosyl-transferring enzyme from Arthrobacter globiformis A19; experiment: Specificity to transferring acceptor; parameters: key: −: no saccharide transferred product was formed; ±: a saccharide-transferred product formed in an amount of less than one percent to the total sugars; +: a saccharide-transferred product was formed in an amount of over one percent but below 10% to the total sugars; ++: a saccharide-transferred product was formed in an amount of over 10% to the total sugars; details: partially purified enzyme, panose as saccharide donor, 10 units/g substrate, 3.2% (w/v), 30° C., pH 6.0, 24 hours
Outline: (§3)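 Scoring is presence or absence of a transfer product, detected by HPLC for tri- or larger saccharides and by GLC for smaller ones. Reactions: 3.2% (w/v) saccharide with panose as donor in equal amount, 10 units/g substrate of purified or partially purified enzyme, pH 6.0, 30 °C, 24 h.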

[7] = tested on: α-isomaltosyl-transferring enzyme from Arthrobacter ramosus S1; experiment: Specificity to transferring acceptor; parameters: key: −: no saccharide transferred product was formed; ±: a saccharide-transferred product formed in an amount of less than one percent to the total sugars; +: a saccharide-transferred product was formed in an amount of over one percent but below 10% to the total sugars; ++: a saccharide-transferred product was formed in an amount of over 10% to the total sugars; details: panose as saccharide donor, 10 units/g substrate, 3.2% (w/v), 30° C., pH 6.0, 24 hours
Outline: as §3

[8] = tested on: α-isomaltosyl-transferring enzyme from Bacillus globisporus C11; experiment: Specificity to transferring acceptor; parameters: key: −: no saccharide transferred product was formed; ±: a saccharide-transferred product formed in an amount of less than one percent to the total sugars; +: a saccharide-transferred product was formed in an amount of over one percent but below 10% to the total sugars; ++: a saccharide-transferred product was formed in an amount of over 10% to the total sugars; details: panose as saccharide donor, 10 units/g substrate, 3.2% (w/v), 30° C., pH 6.0, 24 hours
Outline: as §3

[9] = tested on: α-isomaltosyl-transferring enzyme from Bacillus globisporus C9; experiment: Specificity to transferring acceptor; parameters: key: −: no saccharide transferred product was formed; ±: a saccharide-transferred product formed in an amount of less than one percent to the total sugars; +: a saccharide-transferred product was formed in an amount of over one percent but below 10% to the total sugars; ++: a saccharide-transferred product was formed in an amount of over 10% to the total sugars; details: panose as saccharide donor, 10 units/g substrate, 3.2% (w/v), 30° C., pH 6.0, 24 hours
Outline: as §3

[10] = tested on: α-isomaltosyl-transferring enzyme from Bacillus globisporus N75; experiment: Specificity to transferring acceptor; parameters: key: −: no saccharide transferred product was formed; ±: a saccharide-transferred product formed in an amount of less than one percent to the total sugars; +: a saccharide-transferred product was formed in an amount of over one percent but below 10% to the total sugars; ++: a saccharide-transferred product was formed in an amount of over 10% to the total sugars; details: panose as saccharide donor, 10 units/g substrate, 3.2% (w/v), 30° C., pH 6.0, 24 hours
Outline: as §3

Row | Compound | Enzymatic action for forming cyclotetrasaccharide, Enzyme of Strain A19 [1] | Enzymatic action for forming cyclotetrasaccharide, Enzyme of Strain S1 [2] | Enzymatic action for forming cyclotetrasaccharide, Enzyme of Strain C11 [3] | Enzymatic action for forming cyclotetrasaccharide, Enzyme of Strain C9 [4] | Enzymatic action for forming cyclotetrasaccharide, Enzyme of Strain N75 [5] | Product of transferring reaction, Enzyme of Stain A19 [6] | Product of transferring reaction, Enzyme of Strain S1 [7] | Product of transferring reaction, Enzyme of Strain C11 [8] | Product of transferring reaction, Enzyme of Strain C9 [9] | Product of transferring reaction, Enzyme of Strain N75 [10]
1 | OC[C@H]1O[C@H](O[C@H]2C(O)O[C@H](CO)[C@@H](O)[C@@H]2O)[C@H](O)[C@@H](O)[C@@H]1O (stereo partly drawn) [Kojibiose, kojibiose] | − | − | − | − | − | + (a saccharide-transferred product was formed in an amount of over one percent but below 10% to the total sugars) | + (a saccharide-transferred product was formed in an amount of over one percent but below 10% to the total sugars) | + (a saccharide-transferred product was formed in an amount of over one percent but below 10% to the total sugars) | + (a saccharide-transferred product was formed in an amount of over one percent but below 10% to the total sugars) | + (a saccharide-transferred product was formed in an amount of over one percent but below 10% to the total sugars)
2 | OC[C@H]1O[C@@H](O[C@H]2[C@H](O)[C@@H](O)C(O)O[C@@H]2CO)[C@H](O)[C@@H](O)[C@H]1O (stereo partly drawn) [Lactose, lactose] | − | − | − | − | − | + (a saccharide-transferred product was formed in an amount of over one percent but below 10% to the total sugars) | + (a saccharide-transferred product was formed in an amount of over one percent but below 10% to the total sugars) | + (a saccharide-transferred product was formed in an amount of over one percent but below 10% to the total sugars) | + (a saccharide-transferred product was formed in an amount of over one percent but below 10% to the total sugars) | + (a saccharide-transferred product was formed in an amount of over one percent but below 10% to the total sugars)
3 | OC[C@H]1O[C@H](O[C@H]2[C@H](O)[C@@H](O)[C@@H](O[C@H]3[C@H](O)[C@@H](O)[C@@H](O[C@H]4[C@H](O)[C@@H](O)C(O)O[C@@H]4CO)O[C@@H]3CO)O[C@@H]2CO)[C@H](O)[C@@H](O)[C@@H]1O (stereo partly drawn) [Maltotetraose, maltotetraose] | − | − | − | − | − | + (a saccharide-transferred product was formed in an amount of over one percent but below 10% to the total sugars) | + (a saccharide-transferred product was formed in an amount of over one percent but below 10% to the total sugars) | + (a saccharide-transferred product was formed in an amount of over one percent but below 10% to the total sugars) | + (a saccharide-transferred product was formed in an amount of over one percent but below 10% to the total sugars) | + (a saccharide-transferred product was formed in an amount of over one percent but below 10% to the total sugars)
4 | OC[C@H]1O[C@@H]2O[C@H]3[C@H](O)[C@@H](O)[C@@H](O[C@H]4[C@H](O)[C@@H](O)[C@@H](O[C@H]5[C@H](O)[C@@H](O)[C@@H](O[C@H]6[C@H](O)[C@@H](O)[C@@H](O[C@H]7[C@H](O)[C@@H](O)[C@@H](O[C@H]8[C@H](O)[C@@H](O)[C@@H](O[C@H]9[C@H](O)[C@@H](O)[C@@H](O[C@H]1[C@H](O)[C@H]2O)O[C@@H]9CO)O[C@@H]8CO)O[C@@H]7CO)O[C@@H]6CO)O[C@@H]5CO)O[C@@H]4CO)O[C@@H]3CO [γ-Cyclodextrin, γ-cyclodextrin] | − | − | − | − | − | − | − | − | − | −
5 | OC[C@H]1O[C@H](OC[C@H]2O[C@H](O[C@H]3[C@H](O)[C@@H](O)C(O)O[C@@H]3CO)[C@H](O)[C@@H](O)[C@@H]2O)[C@H](O)[C@@H](O)[C@@H]1O (stereo partly drawn) [Panose, panose] | + | + | + | + | + |  |  |  |  | 
6 | maltoheptaose | − | − | − | − | − |  |  |  |  | 
7 | OC[C@H]1O[C@H](OC[C@H]2O[C@H](O[C@H]3[C@H](O)[C@@H](O)[C@@H](O[C@H]4[C@H](O)[C@@H](O)C(O)O[C@@H]4CO)O[C@@H]3CO)[C@H](O)[C@@H](O)[C@@H]2O)[C@H](O)[C@@H](O)[C@@H]1O (stereo partly drawn) [Isomaltosylmaltose, isomaltosylmaltose] | + | + | + | + | + |  |  |  |  | 
8 | maltohexaose | − | − | − | − | − |  |  |  |  | 
